Source: PubChem BioAssay (NCI)
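Growth conditions: 96-well plates. Treatment: test compound, 48 hours, 5 concentrations. Analysis: linear interpolation between bracketing concentrations; unreached endpoints set to highest concentration. Here, GI50 denotes the concentration required for 50% inhibition of growth. Definition used: TGI = concentration required for complete inhibition of growth.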

Tests used:
Assay in all cases: DTP human tumour cell line panel, 48 h
M14 melanoma = system: M14 melanoma
HOP-92 NSCLC = system: HOP-92 NSCLC
SR leukemia = system: SR leukemia
786-0 renal = system: 786-0 renal
OVCAR-8 ovarian = system: OVCAR-8 ovarian
BT-549 breast = system: BT-549 breast
NCI-H226 lung = system: NCI-H226 lung
NCI-H23 lung = system: NCI-H23 lung
HCC-2998 colon = system: HCC-2998 colon
LOX IMVI melanoma = system: LOX IMVI melanoma
A549 NSCLC = system: A549 NSCLC
MOLT-4 leukemia = system: MOLT-4 leukemia
UACC-257 melanoma = system: UACC-257 melanoma
SNB-19 CNS = system: SNB-19 CNS
SW-620 colon = system: SW-620 colon
SF-295 CNS = system: SF-295 CNS
DU-145 prostate = system: DU-145 prostate
A498 renal = system: A498 renal
MCF7 breast = system: MCF7 breast
MALME-3M melanoma = system: MALME-3M melanoma
OVCAR-3 ovarian = system: OVCAR-3 ovarian
HCT-116 colon = system: HCT-116 colon
UO-31 renal = system: UO-31 renal
HS 578T breast = system: HS 578T breast
RPMI-8226 leukemia = system: RPMI-8226 leukemia
SK-OV-3 ovarian = system: SK-OV-3 ovarian
U251 CNS = system: U251 CNS
PC-3 prostate = system: PC-3 prostate
RXF 393 renal = system: RXF 393 renal
NCI-H460 lung = system: NCI-H460 lung
HOP-62 NSCLC = system: HOP-62 NSCLC
SF-539 CNS = system: SF-539 CNS
IGROV1 ovarian = system: IGROV1 ovarian
CAKI-1 renal = system: CAKI-1 renal
CCRF-CEM leukemia = system: CCRF-CEM leukemia
HCT-15 colon = system: HCT-15 colon
OVCAR-4 ovarian = system: OVCAR-4 ovarian
MDA-MB-435 = system: MDA-MB-435
TK-10 renal = system: TK-10 renal
UACC-62 melanoma = system: UACC-62 melanoma
KM12 colon = system: KM12 colon
COLO 205 colon = system: COLO 205 colon
SK-MEL-5 melanoma = system: SK-MEL-5 melanoma
NCI-H522 lung = system: NCI-H522 lung
SNB-75 CNS = system: SNB-75 CNS
SN12C renal = system: SN12C renal
MDA-MB-231 breast = system: MDA-MB-231 breast
SF-268 CNS = system: SF-268 CNS
T-47D breast = system: T-47D breast
EKVX NSCLC = system: EKVX NSCLC
HT29 colon = system: HT29 colon
SK-MEL-28 melanoma = system: SK-MEL-28 melanoma
ACHN renal = system: ACHN renal
NCI/ADR-RES ovarian = system: NCI/ADR-RES ovarian
OVCAR-5 ovarian = system: OVCAR-5 ovarian
K-562 leukemia = system: K-562 leukemia
HL-60(TB) leukemia = system: HL-60(TB) leukemia
SK-MEL-2 melanoma = system: SK-MEL-2 melanoma

Work on `CCN(CC)CCOc1ccc(/C=C2\CC3C4CC=C5C[C@@H](N6CCCC6)CC[C@]5(C)C4CC[C@]3(C)[C@H]2OC(C)=O)cc1OC` (stereo partly specified) yielded a GI50 (M14 melanoma) of 0.133 µM, a TGI (M14 melanoma) of 0.217 µM and a GI50 (HOP-92 NSCLC) of 0.152 µM. It also gave a TGI (HOP-92 NSCLC) of 1.88 µM, a GI50 (SR leukemia) of 0.191 µM and a TGI (SR leukemia) of 0.444 µM. The GI50 (786-0 renal) was 0.635 µM, the TGI (786-0 renal) was 1.3 µM and the GI50 (OVCAR-8 ovarian) was 1.07 µM. The TGI (OVCAR-8 ovarian) was 3.47 µM, the GI50 (BT-549 breast) was 1.8 µM and the TGI (BT-549 breast) was 3.52 µM. For the same molecule, the GI50 (NCI-H226 lung) was 1.26 µM, the TGI (NCI-H226 lung) was 3.3 µM and the GI50 (NCI-H23 lung) was 1.63 µM. The TGI (NCI-H23 lung) was 3.32 µM, the GI50 (HCC-2998 colon) was 0.197 µM and the TGI (HCC-2998 colon) was 0.647 µM. It also gave a GI50 (LOX IMVI melanoma) of 1.03 µM, a TGI (LOX IMVI melanoma) of 2.4 µM and a GI50 (A549 NSCLC) of 1.64 µM. The TGI (A549 NSCLC) was 3.67 µM, the GI50 (MOLT-4 leukemia) was 0.091 µM and the TGI (MOLT-4 leukemia) was 0.345 µM. The GI50 (UACC-257 melanoma) was 1.91 µM, the TGI (UACC-257 melanoma) was 3.92 µM and the GI50 (SNB-19 CNS) was 0.698 µM. The TGI (SNB-19 CNS) was 3.47 µM, the GI50 (SW-620 colon) was 0.555 µM and the TGI (SW-620 colon) was 1.92 µM. The GI50 (SF-295 CNS) was 1.55 µM, the TGI (SF-295 CNS) was 2.95 µM and the GI50 (DU-145 prostate) was 1.05 µM. The TGI (DU-145 prostate) was 6.07 µM, the GI50 (A498 renal) was 1.96 µM and the TGI (A498 renal) was 3.46 µM. It also gave a GI50 (MCF7 breast) of 1.21 µM, a GI50 (MALME-3M melanoma) of 0.579 µM and a TGI (MALME-3M melanoma) of 1.24 µM. It also gave a GI50 (OVCAR-3 ovarian) of 0.773 µM, a TGI (OVCAR-3 ovarian) of 1.84 µM and a GI50 (HCT-116 colon) of 0.132 µM. For the same molecule, the TGI (HCT-116 colon) was 0.548 µM, the GI50 (UO-31 renal) was 2.28 µM and the GI50 (HS 578T breast) was 1.03 µM. For the same molecule, the TGI (HS 578T breast) was 2.32 µM, the GI50 (RPMI-8226 leukemia) was 0.124 µM and the TGI (RPMI-8226 leukemia) was 5.24 µM. The GI50 (SK-OV-3 ovarian) was 2.4 µM, the TGI (SK-OV-3 ovarian) was 6.06 µM and the GI50 (U251 CNS) was 1.18 µM. It also gave a TGI (U251 CNS) of 2.44 µM, a GI50 (PC-3 prostate) of 1.13 µM and a TGI (PC-3 prostate) of 2.51 µM. For the same molecule, the GI50 (RXF 393 renal) was 0.815 µM, the TGI (RXF 393 renal) was 2.77 µM and the GI50 (NCI-H460 lung) was 1.6 µM. The TGI (NCI-H460 lung) was 4.46 µM, the GI50 (HOP-62 NSCLC) was 0.899 µM and the TGI (HOP-62 NSCLC) was 2.27 µM. It also gave a GI50 (SF-539 CNS) of 0.597 µM, a TGI (SF-539 CNS) of 1.2 µM and a TGI (IGROV1 ovarian) of 1.73 µM. It also gave a GI50 (CAKI-1 renal) of 1.25 µM, a TGI (CAKI-1 renal) of 2.99 µM and a GI50 (CCRF-CEM leukemia) of 0.197 µM. The TGI (CCRF-CEM leukemia) was 0.457 µM, the GI50 (HCT-15 colon) was 1.08 µM and the TGI (HCT-15 colon) was 2.45 µM. It also gave a GI50 (OVCAR-4 ovarian) of 2.14 µM, a TGI (OVCAR-4 ovarian) of 5.65 µM and a GI50 (MDA-MB-435) of 0.277 µM. For the same molecule, the TGI (MDA-MB-435) was 0.745 µM, the GI50 (TK-10 renal) was 1.24 µM and the TGI (TK-10 renal) was 2.67 µM. For the same molecule, the GI50 (UACC-62 melanoma) was 0.715 µM, the TGI (UACC-62 melanoma) was 1.41 µM and the GI50 (KM12 colon) was 0.0997 µM. The TGI (KM12 colon) was 1.16 µM, the GI50 (COLO 205 colon) was 2.04 µM and the TGI (COLO 205 colon) was 4.28 µM. It also gave a GI50 (SK-MEL-5 melanoma) of 0.72 µM, a TGI (SK-MEL-5 melanoma) of 1.39 µM and a GI50 (NCI-H522 lung) of 2.35 µM. The GI50 (SNB-75 CNS) was 2.21 µM, the TGI (SNB-75 CNS) was 5.1 µM and the GI50 (SN12C renal) was 1.19 µM. It also gave a TGI (SN12C renal) of 2.64 µM, a GI50 (MDA-MB-231 breast) of 1.73 µM and a TGI (MDA-MB-231 breast) of 3.25 µM. For the same molecule, the GI50 (SF-268 CNS) was 1.86 µM, the TGI (SF-268 CNS) was 4.56 µM and the GI50 (T-47D breast) was 1.03 µM. For the same molecule, the TGI (T-47D breast) was 2.21 µM, the GI50 (EKVX NSCLC) was 1.59 µM and the TGI (EKVX NSCLC) was 3.47 µM. For the same molecule, the GI50 (HT29 colon) was 0.144 µM, the TGI (HT29 colon) was > 44.1 µM and the GI50 (SK-MEL-28 melanoma) was 1.71 µM. The TGI (SK-MEL-28 melanoma) was 3.56 µM, the GI50 (ACHN renal) was 0.791 µM and the TGI (ACHN renal) was 1.56 µM. The GI50 (NCI/ADR-RES ovarian) was 0.57 µM, the TGI (NCI/ADR-RES ovarian) was 1.93 µM and the GI50 (OVCAR-5 ovarian) was 1.39 µM. The TGI (OVCAR-5 ovarian) was 3.06 µM, the TGI (K-562 leukemia) was > 36 µM and the GI50 (HL-60(TB) leukemia) was 0.639 µM. The TGI (HL-60(TB) leukemia) was 1.77 µM, the GI50 (SK-MEL-2 melanoma) was 3.45 µM and the TGI (SK-MEL-2 melanoma) was > 100 µM.
